Assay results taken from patent publication US12162858B2, “Quinoline derivatives as inhibitors of AXL/MER RTK and CSF1R” (QURIENT CO., LTD., priority 2018, dated 2024).

Target: T1, Mer (Homo sapiens, UniProt Q12866)
T1 construct: purchased Life Technologies
T1 sequence (Q12866 21-999): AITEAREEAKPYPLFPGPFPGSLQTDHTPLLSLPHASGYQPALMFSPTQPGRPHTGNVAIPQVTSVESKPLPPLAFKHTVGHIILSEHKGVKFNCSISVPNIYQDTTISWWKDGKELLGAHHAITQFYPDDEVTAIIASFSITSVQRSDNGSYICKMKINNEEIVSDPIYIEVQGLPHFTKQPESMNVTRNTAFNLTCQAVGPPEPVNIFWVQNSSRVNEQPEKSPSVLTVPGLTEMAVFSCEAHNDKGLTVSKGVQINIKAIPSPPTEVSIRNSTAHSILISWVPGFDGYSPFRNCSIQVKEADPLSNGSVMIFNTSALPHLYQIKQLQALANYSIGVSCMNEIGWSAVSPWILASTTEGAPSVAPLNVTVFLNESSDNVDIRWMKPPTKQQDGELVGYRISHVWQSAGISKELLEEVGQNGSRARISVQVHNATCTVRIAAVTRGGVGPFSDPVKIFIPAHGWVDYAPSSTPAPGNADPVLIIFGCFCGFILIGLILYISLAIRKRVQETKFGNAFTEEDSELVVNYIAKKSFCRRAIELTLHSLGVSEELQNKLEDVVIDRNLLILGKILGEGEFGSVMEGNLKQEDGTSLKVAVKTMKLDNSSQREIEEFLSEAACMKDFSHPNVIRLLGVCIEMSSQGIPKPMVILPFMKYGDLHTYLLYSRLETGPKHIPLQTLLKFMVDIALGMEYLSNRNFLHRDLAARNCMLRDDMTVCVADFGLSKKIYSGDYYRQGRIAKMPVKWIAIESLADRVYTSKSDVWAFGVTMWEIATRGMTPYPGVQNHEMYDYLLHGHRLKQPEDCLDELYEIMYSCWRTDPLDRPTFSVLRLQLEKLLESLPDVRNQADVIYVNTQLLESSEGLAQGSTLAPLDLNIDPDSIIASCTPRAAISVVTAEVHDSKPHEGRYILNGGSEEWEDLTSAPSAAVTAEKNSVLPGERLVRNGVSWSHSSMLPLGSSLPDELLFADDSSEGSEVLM
Experiment: LanthaScreen Eu kinase binding assay for Mer
Settings: read-out: Mer kinase binding activity (Kd)
Outline: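 Competitive displacement of Alexa Fluor 647-labeled Tracer 236 from the kinase, with binding detected by TR-FRET with a Eu-labeled anti-GST antibody. Compounds were run as 8-step DMSO serial dilutions and incubated 1 h at room temperature. Kd was calculated relative to DMSO vehicle control wells.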

`COc1cc2nccc(Oc3ccc(NC(=O)c4nn(C5CC5)cc4OCC(F)(F)F)nc3)c2cc1OC` [Compound 5] and `COc1cc2nccc(Oc3ccc(NC(=O)c4nn(C5CCOCC5)cc4OCC(F)(F)F)nc3)c2cc1OC` [Compound 90] cannot be ordered by Kd: < 100 nM for the first, < 100 nM for the second.

`COc1cc2nccc(Oc3ccc(NC(=O)c4nn(C5CCOC5)cc4OCC(F)(F)F)c(F)c3)c2cc1OC` (centres unmarked) [Compound 77] and `COc1cc2nccc(Oc3ccc(NC(=O)c4nn(C5CCN(C)C5)cc4OCC(F)(F)F)c(F)c3)c2cc1OC` (centres unmarked) [Compound 94] cannot be ordered by Kd: < 100 nM for the first, < 100 nM for the second.

`COc1cc2nccc(Oc3ccc(NC(=O)c4nn(C5CCNC5)cc4OCC(F)(F)F)cc3F)c2cc1OC` (centres unmarked) [Compound 78] and `COc1cc2nccc(Oc3ccc(NC(=O)c4nn(C5CCNC5)cc4OCC(F)(F)F)cc3C)c2cc1OC` (centres unmarked) [Compound 81] fall in the same range of Kd: 100 to 500 nM for the first, 100 to 500 nM for the second.

Compared with `COc1cc2nccc(Oc3ccc(NC(=O)c4nn(CCN)cc4OCC(F)(F)F)cc3F)c2cc1OC` [Compound 79], `COc1cc2nccc(Oc3ccc(NC(=O)c4nn(CCN)cc4OCC(F)(F)F)cc3C)c2cc1OC` [Compound 82] is higher in Kd: < 100 nM for the first, 100 to 500 nM for the second.

`COc1cc2nccc(Oc3ccc(NC(=O)c4nn(CC(C)O)cc4OCC(F)(F)F)cc3F)c2cc1OC` (centres unmarked) [Compound 80] and `COc1cc2nccc(Oc3ccc(NC(=O)c4nn(CC(C)O)cc4OCC(F)(F)F)cc3C)c2cc1OC` (centres unmarked) [Compound 83] cannot be ordered by Kd: < 100 nM for the first, < 100 nM for the second.

`COCCn1cc(OCC(F)(F)F)c(C(=O)Nc2ccc(Oc3ccnc4cc(OC)c(OC)cc34)c(C)c2)n1` [Compound 84] and `COc1cc2nccc(Oc3ccc(NC(=O)c4nn(C5CCOC5)cc4OCC(F)(F)F)cc3C)c2cc1OC` (centres unmarked) [Compound 85] cannot be ordered by Kd: < 100 nM for the first, < 100 nM for the second.

`COc1cc2nccc(Oc3ccc(NC(=O)c4nn(C5CCNC5)cc4OCC(F)(F)F)cc3)c2cc1OC` (centres unmarked) [Compound 86] and `COc1cc2nccc(Oc3ccc(NC(=O)c4nn(CCN)cc4OCC(F)(F)F)cc3)c2cc1OC` [Compound 88] fall in the same range of Kd: 100 to 500 nM for the first, 100 to 500 nM for the second.

`COc1cc2nccc(Oc3ccc(NC(=O)c4nn(CC(C)C)cc4OCC(F)(F)F)cc3)c2cc1OC` [Compound 87] and `COc1cc2nccc(Oc3ccc(NC(=O)c4nn(CC(C)O)cc4OCC(F)(F)F)cc3)c2cc1OC` (centres unmarked) [Compound 89] cannot be ordered by Kd: < 100 nM for the first, < 100 nM for the second.

`COc1cc2nccc(Oc3ccc(NC(=O)c4nn(C5CCN(C)C5)cc4OCC(F)(F)F)nc3)c2cc1OC` (centres unmarked) [Compound 91] and `COc1cc2nccc(Oc3ccc(NC(=O)c4nn(CCC5CCCC5)cc4OCC(F)(F)F)nc3)c2cc1OC` [Compound 93] cannot be ordered by Kd: < 100 nM for the first, < 100 nM for the second.

With `COc1cc2nccc(Oc3ccc(NC(=O)c4nn(CC5COC5)cc4OCC(F)(F)F)c(F)c3)c2cc1OC` [Compound 95] the Kd was < 100 nM.

Target: T2, Mer (Ba/F3 cells) (Homo sapiens, UniProt Q12866)
T2 sequence (Q12866 1-999): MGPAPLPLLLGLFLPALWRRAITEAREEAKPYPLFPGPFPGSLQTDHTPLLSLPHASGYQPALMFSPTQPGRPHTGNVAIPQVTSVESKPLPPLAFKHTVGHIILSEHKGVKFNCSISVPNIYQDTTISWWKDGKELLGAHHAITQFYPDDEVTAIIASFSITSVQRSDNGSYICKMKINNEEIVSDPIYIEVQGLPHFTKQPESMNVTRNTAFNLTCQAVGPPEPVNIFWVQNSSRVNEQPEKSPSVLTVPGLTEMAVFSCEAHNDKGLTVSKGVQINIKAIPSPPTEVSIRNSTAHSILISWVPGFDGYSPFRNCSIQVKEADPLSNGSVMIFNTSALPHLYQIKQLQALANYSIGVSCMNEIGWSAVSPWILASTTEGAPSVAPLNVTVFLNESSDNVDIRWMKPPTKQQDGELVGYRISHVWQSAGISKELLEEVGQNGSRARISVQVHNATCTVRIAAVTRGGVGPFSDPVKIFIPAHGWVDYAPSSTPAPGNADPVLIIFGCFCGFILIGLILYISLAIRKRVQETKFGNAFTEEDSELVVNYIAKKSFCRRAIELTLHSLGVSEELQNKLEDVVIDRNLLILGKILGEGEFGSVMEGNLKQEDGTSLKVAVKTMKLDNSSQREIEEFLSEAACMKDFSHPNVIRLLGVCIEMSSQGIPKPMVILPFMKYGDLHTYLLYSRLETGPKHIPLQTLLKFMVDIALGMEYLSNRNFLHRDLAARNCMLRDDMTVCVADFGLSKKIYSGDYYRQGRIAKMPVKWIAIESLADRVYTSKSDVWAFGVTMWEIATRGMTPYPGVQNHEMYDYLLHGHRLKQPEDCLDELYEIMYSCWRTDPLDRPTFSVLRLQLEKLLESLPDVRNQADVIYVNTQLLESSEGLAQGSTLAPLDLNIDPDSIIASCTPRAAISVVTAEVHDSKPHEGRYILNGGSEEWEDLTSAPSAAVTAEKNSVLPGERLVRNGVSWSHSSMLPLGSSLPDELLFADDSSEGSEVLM
Experiment: BaF3 viability assay, Mer-dependent cells
Assay type: cell-based
Settings: read-out: Cellular Mer activity by Ba/F3 assay (IC50)
From the text: In this system, IL-3-dependent Ba/F3 cells are modified to express an activated recombinant kinase (in the present case Axl, Mer and CSF1R). Following removal of IL-3, the modified cells are dependent on the activity of the recombinant kinase for survival and proliferation. Inhibition of such kinase(s) through test compounds reduces survival and proliferation of the cells.
Cell lines were maintained in growth media (GM) consisting of RPMI 1640 supplemented with 10% FBS. Cells in logarithmic-phase growth were harvested and 5,000 cells were distributed into each well of a 384-well plate in 50 μl GM. Parental cells (or experimental assays where specified) were further supplemented with 2 ng/ml IL-3 to support cell growth and survival. Fifty nanoliters of the indicated reference standard or experimental compound were added to appropriate wells (in duplicate) and the cells were cultured for 48 h at 37° C./5% CO2. Viability was determined by adding 10 μl Cell Titer Glo and measuring luminescence, which is reported as relative light units (RLU) measured in counts per second. The following calculations and formulas are used for data analysis using GraphPad Prism software: The curve fitting was made using the Dose response curves-Inhibition.

With `COc1cc2nccc(Oc3ccc(NC(=O)c4nn(C5CC5)cc4OCC(F)(F)F)nc3)c2cc1OC` [Compound 5] the GI50 was < 1000 nM.
